According to patent US12486250B2, “Muscarinic receptor 4 antagonists and methods of use” (Neurocrine Biosciences, Inc., priority 2019, dated 2025):
Read-outs that look alike come from different tables or passages of the source.

Tests used:
[1] = Rat pharmacokinetics (IV and PO); assay type: in vivo, male Sprague-Dawley rats; details: male, Sprague-Dawley, plasma; for Vd: read-out: Vdss; for half-life: read-out: T½ (converted); for Tmax: read-out: Tmax range
Method: The pharmacokinetics of Compounds 1, 2, 3A, and 4A were assessed in male Sprague-Dawley rats following either intravenously (IV) or orally (PO) dosing. Sin-life portions of the studies were either conducted internally at Neurocrine Biosciences or contracted to Charles River Laboratories or Agilux Laboratories. All studies were performed according to good scientific principles and internal standard operating procedures (SOPs). However, the studies were exploratory in nature and were not conducted in accordance with the United States Food and Drug Administration (FDA) Good Laboratory Guidance (GLP) regulations.
Adult (8-9 weeks old) male rats were acclimated prior to dose administration. For dosing, rats were either dosed intravenously through the femoral vein or orally via oral gavage. Food and water were provided ad libitum during the acclimation period. The rats were maintained in a controlled temperature and humidity environment with a photoperiod with a 12 hour light to dark cycle. Rats were either dosed fed or fasted. In studies where the rats were fasted, rats were allowed access to food four hours post-dose.
For the IV bolus dose, compound was administered over a period of approximately 30 seconds using a 1 mL syringe via the femoral vein catheter. The IV dose was followed with a bolus of sterile saline (approximately 100 μL). For IV infusion doses, compound was administered using an IV infusion pump to deliver the total dose volume over 1 hour. Rats were connected to the infusion pump through catheter tubing that was connected to the femoral catheter prior to the infusion start. For the oral dose, compound was administered using flexible, polypropylene-shafted, silicone bulb shaped-tipped gavage (Instech Solomon plastic feeding tubes, 18 gauge×75 mm). Animals were periodically observed for eight hours following the dose administration for potential test article related effects.
Serial blood samples from IV and PO dosed rats (N=3 or 4) were collected out to 24 hours post-dose. For the time points up to 8 hours post dose, approximately 200 μL of whole blood was drawn from the jugular catheter or from the tail vein with a 1-mL syringe. The whole blood was transferred to a 600 μL Sarstedt collection tube that contained 1.2-2 mg EDTA-K3/mL of anticoagulant, gently mixed, and then centrifuged for 1.0 min at 13,000 rpm. Approximately 100 μL of plasma was aliquoted. Blood for the terminal time points at 24 hours were collected by […] with a syringe containing 1.6 mg EDTA-K3/mL of anticoagulant, transferred to an Eppendorf and immediately centrifuged for 1.0 min at 13,000 rpm. Approximately 300 μL of plasma was aliquoted. The aliquoted plasma samples were stored at −80° C. until analysis.
For IV and PO dose groups, descriptive pharmacokinetics were derived and evaluated based on the plasma concentrations from each individual rat. Pharmacokinetic parameters were determined using non-compartmental analysis (NCA) of plasma concentration-time profiles in Phoenix WinNonlin pharmacokinetic modeling software Professional (version 6.3; Pharsight Corporation). Nominal time was used for all timepoints unless otherwise indicated. Descriptive statistics (means, standard deviations and coefficient of variation) were also generated. Mean pharmacokinetic summaries of Compounds 1-4 following intravenous and PO dosing in Sprague Dawley rats were summarized in Tables 15 and 16.
Plasma samples of compounds 1, 2, 3A, and 4A were prepared by protein precipitation. Calibration standards and quality control plasma samples were prepared from the same lot of reference standard to quantify the concentration of the study samples. […]

[2] = target: T1, MDR1 (Multidrug resistance protein 1) (Homo sapiens, UniProt P08183); test: MDCK-MDR1 assay (apparent permeability and efflux ratio); assay type: in vitro ADME; details: for Papp A→B at 2 h, 5 µM / Papp B→A at 2 h, 5 μM: MDCK-MDR1, pH 7.4, 2 hours at 37° C.; for Papp A→B at 2 h, 5 µM: apical to basolateral; for Papp B→A at 2 h, 5 μM: basolateral to apical; for efflux ratio at 2 h, 5 µM: MDCK-MDR1, pH 7.4, Papp B>A/Papp A>B
T1 construct: host or cells: MDCK cells
Method: Apparent permeability and efflux ratios were generated by Absorption Systems LLP, Exton, PA MDCK cells transfected with human MDR1 (Multidrug resistance protein 1) were grown as monolayers on microporous membranes in 12-well assay plates. Each compound was evaluated at a single concentration equal to 5 μM. The assay buffer consisted of Hanks' balanced salt solution pH 7.4 containing 10 mM HEPES and 15 mM glucose. Test article diluted in assay buffer was dosed to the apical chambers of cell monolayer plates to determine apical to basolateral (A to B) permeability. Basolateral to apical (B to A) permeability was determined by addition of dosing solution to the basolateral chambers. […] Cell monolayers dosed with test article were incubated for 2 hours at 37° C., 5% CO2 in a humidified incubator. Samples were collected from both donor and receiver chambers at 2 hours then prepared for LC-MS/MS analysis using electrospray ionization. Duplicate measurements of A to B and B to A permeability were collected for each compound. Efflux ratio was calculated using the following formula: Papp B>A/Papp A>B. Controls were incorporated to ensure cell monolayer integrity (lucifer yellow) and activity of MDR1 protein (digoxin).

[3] = IV infusion (1 hr), 2 mg/kg, HCl salt
[4] = iv, 1 mg/kg, IV bolus, 1 mg/kg, HCl salt
[5] = iv, 1 mg/kg, IV bolus, HCl salt
[6] = iv, 2 mg/kg, IV infusion (1 hr), 2 mg/kg, HCl salt
[7] = iv, 2 mg/kg, IV infusion (1 hr), HCl salt
[8] = po, 10 mg/kg, PO 10 mg/kg, 1% Tween-80 in water (suspension)
[9] = po, 10 mg/kg, PO 10 mg/kg, 10% PEG-400 in 0.5% MC (suspension)
[10] = po, 10 mg/kg, PO 10 mg/kg, 10% PEG-400 in 0.5% MC in water (solution)
[11] = PO 10 mg/kg, 10% PEG-400 in 0.5% MC in water (solution)
[12] = iv, 2.5 mg/kg, IV bolus, HCl salt
[13] = po, 10 mg/kg, PO 10 mg/kg, 5% Tween-80 in 0.5% (w/v) MC in water (suspension)
[14] = po, 10 mg/kg, PO 10 mg/kg, 30% PG, 20% PEG-400, 0.5% MC in water (solution)

Compound | clearance ([1]; IV bolus, 1 mg/kg, HCl salt) [mL/min/kg] | Vd ([1]; IV bolus, 1 mg/kg, HCl salt) [L/kg] | clearance [1, 3] [mL/min/kg] | Vd [1, 3] [L/kg] | half-life [1, 4] [h] | AUC(0-inf) [1, 5] [ng·h/mL] | AUC(0-t) [1, 5] [ng·h/mL] | half-life [1, 6] [h] | AUC(0-inf) [1, 7] [ng·h/mL] | AUC(0-t) [1, 7] [ng·h/mL] | AUC(0-t) [1, 10] [ng·h/mL] | Cmax [1, 10] [ng/mL] | Tmax [1, 10] [h] | Papp A→B at 2 h, 5 µM [2] [×10⁻⁶ cm/s] | Papp B→A at 2 h, 5 μM [2] [×10⁻⁶ cm/s] | efflux ratio at 2 h, 5 µM [2] | bioavailability [1, 11] [%] | AUC(0-inf) [1, 10] [ng·h/mL] | half-life [1, 10] [h] | AUC(0-inf) [1, 13] [ng·h/mL] | other results
C[C@@H]1CN(c2cnc(C(F)(F)F)cn2)C[C@H](C)N1C(=O)OCCC1CCN(Cc2ccccc2)CC1 [Compound 1, 2-(1-benzylpiperidin-4-yl)ethyl (2R,6S)-2,6-dimethyl-4-[5-(trifluoromethyl)pyrazin-2-yl]piperazine-1-carboxylate] | 40.4 | 28.2 | 15.8 | 12.1 | 9.1 | 415 | 357 | 10.2 | 1680 | 1780 | 3150 | 264 | 0.5 to 1 | 15 | 21.3 | 1.42 | – | – | – | – | bioavailability ([1]; PO 10 mg/kg, 10% PEG-400 in 0.5% MC (suspension)): 89.1%; AUC(0-t) [1, 8]: 3950 ng·h/mL; Cmax [1, 8]: 280 ng/mL; Tmax [1, 8]: 1 h; AUC(0-t) [1, 9]: 3180 ng·h/mL; Cmax [1, 9]: 164 ng/mL; Tmax [1, 9]: 2 to 7.5 h
C[C@@H]1CN(c2cnc(C(F)(F)F)cn2)C[C@@H](C)N1C(=O)OCCC1CCN(Cc2ccccc2)CC1 [Compound 2, 2-(1-benzylpiperidin-4-yl)ethyl (2R,6R)-2,6-dimethyl-4-[5-(trifluoromethyl)pyrazin-2-yl]piperazine-1-carboxylate] | – | – | 44.9 | 36 | – | – | – | 11 | 747 | 613 | 2190 | 130 | 2 to 7.5 | 17.5 | 24.1 | 1.38 | 81.4 | 3040 | 12.9 | – | –
C[C@@H]1CN(c2ncc(C#N)cn2)C[C@H](C)N1C(=O)NCCC1CCN(Cc2ccccc2)CC1 [Compound 3A] | – | – | – | – | – | – | – | – | – | – | – | – | – | 0.53 | 51.2 | 96.6 | – | – | – | 1150 | clearance ([1]; IV bolus, 2.5 mg/kg, HCl salt): 47.5 mL/min/kg; Vd ([1]; IV bolus, 2.5 mg/kg, HCl salt): 4.37 L/kg; bioavailability ([1]; PO 10 mg/kg, 30% PG, 20% PEG-400, 0.5% MC in water (solution)): 43.7%; half-life ([1]; iv, 2.5 mg/kg, IV bolus, 2.5 mg/kg, HCl salt): 1.95 h; AUC(0-inf) [1, 12]: 882 ng·h/mL; AUC(0-t) [1, 12]: 854 ng·h/mL; AUC(0-t) [1, 13]: 1500 ng·h/mL; Cmax [1, 13]: 205 ng/mL; Tmax [1, 13]: 0.5 to 4 h; half-life [1, 13]: 3.21 h; AUC(0-inf) [1, 14]: 1540 ng·h/mL; AUC(0-t) [1, 14]: 1400 ng·h/mL; Cmax [1, 14]: 247 ng/mL; Tmax [1, 14]: 0.5 to 2 h; half-life [1, 14]: 3.65 h
C[C@@H]1CN(c2cnc(C(F)(F)F)cn2)C[C@@H](C)N1C(=O)NCCC1CCN(Cc2ccccc2)CC1 [Compound 4A] | 56.6 | 16.1 | – | – | 5.01 | 204 | 288 | – | – | – | 1700 | 182 | 0.5 to 2 | 0.55 | 68.6 | 125 | 59.2 | 1740 | 4.2 | 3500 | AUC(0-t) [1, 13]: 2530 ng·h/mL; Cmax [1, 13]: 231 ng/mL; Tmax [1, 13]: 1 to 8 h; half-life [1, 13]: 7.09 h
